Assay results from PubChem BioAssay (NCI).
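Five concentrations, 48 hours, 96-well plates. GI50 is the concentration that inhibits growth by half. TGI is the concentration that stops growth completely.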

Key:
Assay in all cases: NCI-60 cell line screen, 48 h
[1] = test system: UACC-62 melanoma
[2] = test system: COLO 205 colon
[3] = test system: LOX IMVI melanoma
[4] = test system: NCI-H23 lung
[5] = test system: SF-268 CNS
[6] = test system: MALME-3M melanoma
[7] = test system: A549 NSCLC
[8] = test system: U251 CNS
[9] = test system: NCI/ADR-RES ovarian
[10] = test system: MDA-MB-435

`COc1cc(C2(C)SCCCS2)c(I)c(OC)c1OC` was tested, and the TGI [1] was > 100 µM, the TGI [2] was > 100 µM and the TGI [3] was > 100 µM. For the same compound, the TGI [4] was > 100 µM, the TGI [5] was > 100 µM and the TGI [6] was > 100 µM. The TGI [7] was > 100 µM and the TGI [8] was > 100 µM.

In the case of `Cc1ccc(C)c2c1CCc1cc3ccccc3nc1-2`, the TGI [1] is reported as > 100 µM, the TGI [2] is reported as > 100 µM and the TGI [4] is reported as > 100 µM. The TGI [5] was > 100 µM, the TGI [6] was > 100 µM and the TGI [7] was > 100 µM. The TGI [8] was > 100 µM.

With `Cc1cc(Cl)ccc1NC(=O)NC(C)(C)COC(=O)Nc1cccc(Cl)c1` the GI50 [1] was 4.73 µM, the TGI [1] was > 100 µM and the GI50 [2] was 7.18 µM. For the same compound, the TGI [2] was 20.2 µM, the GI50 [9] was 4.12 µM and the TGI [9] was > 100 µM. The GI50 [4] was 3.66 µM, the TGI [4] was 28.4 µM and the GI50 [5] was 13.5 µM. For the same compound, the TGI [5] was 78 µM, the GI50 [6] was 9.6 µM and the TGI [6] was 50.3 µM. The GI50 [10] was 10.9 µM, the TGI [10] was 49.4 µM and the GI50 [7] was 5.05 µM. It also gave a TGI [7] of 66.4 µM, a GI50 [8] of 4.56 µM and a TGI [8] of 19.3 µM.

`CCC1(CC)C(=O)[N-]C(=O)[N-]C1=O.[Au+].[Au+].c1ccc([PH+](c2ccccc2)c2ccccc2)cc1.c1ccc([PH+](c2ccccc2)c2ccccc2)cc1` was tested, and the GI50 [1] was 1.02 µM, the TGI [1] was 2.2 µM and the GI50 [2] was 1.74 µM. For the same compound, the TGI [2] was 3.36 µM, the GI50 [6] was 0.626 µM and the TGI [6] was 1.94 µM. It also gave a GI50 [8] of 1.16 µM and a TGI [8] of 2.65 µM.

With `C[C@@H](c1ccccc1)N(CC#N)C1CCC[C@H]1O` (stereo partly drawn) the TGI [1] was > 100 µM, the TGI [2] was > 100 µM and the TGI [3] was > 100 µM. The TGI [4] was > 100 µM, the TGI [5] was > 100 µM and the TGI [6] was > 100 µM. The TGI [7] was > 100 µM and the TGI [8] was > 100 µM.

With `COC(=O)/C(=N/O)C(C(=O)OC)C(=O)C(=O)Nc1c(Cl)cc(C)cc1S(=O)(=O)O` (stereo not drawn) the TGI [1] was > 100 µM, the TGI [2] was > 100 µM and the TGI [3] was > 100 µM. The TGI [4] was > 100 µM, the TGI [5] was > 100 µM and the TGI [6] was > 100 µM. For the same compound, the TGI [7] was > 100 µM and the TGI [8] was > 100 µM.

For `C/C=C/C(=O)[O-].N.N.N.N.N.[Co+3].[O-][Cl+3]([O-])([O-])[O-]`, the GI50 [1] was > 100 µM, the TGI [1] was > 100 µM and the GI50 [2] was > 100 µM. The TGI [2] was > 100 µM, the GI50 [3] was > 100 µM and the TGI [3] was > 100 µM. For the same compound, the GI50 [4] was > 100 µM, the TGI [4] was > 100 µM and the GI50 [5] was > 100 µM. For the same compound, the TGI [5] was > 100 µM, the GI50 [6] was > 100 µM and the TGI [6] was > 100 µM. For the same compound, the GI50 [7] was > 100 µM, the TGI [7] was > 100 µM and the GI50 [8] was > 100 µM. The TGI [8] was > 100 µM.

With `O=C(O)c1oc2cccc3c2c1CCC3` the TGI [1] was > 100 µM, the TGI [2] was > 100 µM and the TGI [3] was > 100 µM. The TGI [4] was > 100 µM, the TGI [5] was > 100 µM and the TGI [6] was > 100 µM. The TGI [7] was > 100 µM and the TGI [8] was > 100 µM.

`CC(=O)O[C@H](C[C@H](C(C)C)N(C)C(=O)[C@@H](NC(=O)[C@H]1CCCCN1C)C(C)(C)C)c1nc(C(=O)N[C@@H](Cc2ccccc2)C[C@H](C)C(=O)O)cs1` was tested, and the GI50 [1] was < 0.0025 µM, the TGI [1] was > 25 µM and the GI50 [2] was < 0.0025 µM. The TGI [2] was 0.0053 µM, the GI50 [9] was 0.00524 µM and the TGI [9] was > 25 µM. The GI50 [3] was < 0.0025 µM, the TGI [3] was > 25 µM and the GI50 [4] was < 0.0025 µM. The TGI [4] was > 25 µM, the GI50 [5] was 0.00432 µM and the TGI [5] was > 25 µM. For the same compound, the GI50 [6] was < 0.0025 µM, the TGI [6] was > 25 µM and the GI50 [7] was < 0.0025 µM. The TGI [7] was > 25 µM, the GI50 [8] was < 0.0025 µM and the TGI [8] was > 25 µM.

In the case of `COc1cc(/C=C\c2cc(OC)c(OC)c(OC)c2)cc(NS(=O)(=O)c2cccc(Cl)c2)c1OC`, the GI50 [1] is reported as 0.0568 µM, the TGI [1] is reported as > 100 µM and the GI50 [2] is reported as 0.261 µM. The TGI [2] was 0.851 µM, the GI50 [3] was 0.0574 µM and the TGI [3] was > 100 µM. The GI50 [4] was 0.386 µM, the TGI [4] was > 100 µM and the GI50 [5] was 0.202 µM. For the same compound, the TGI [5] was > 100 µM, the GI50 [6] was 20 µM and the TGI [6] was > 100 µM. The GI50 [7] was 0.264 µM, the TGI [7] was > 100 µM and the GI50 [8] was 0.0482 µM. For the same compound, the TGI [8] was > 100 µM.

With `N=C1C(c2nc(-c3ccc(Br)cc3)cs2)=C(O)CN1CC1CCCO1` (stereo not drawn) the GI50 [1] was > 100 µM, the TGI [1] was > 100 µM and the GI50 [2] was > 100 µM. For the same compound, the TGI [2] was > 100 µM, the GI50 [9] was > 100 µM and the TGI [9] was > 100 µM. For the same compound, the GI50 [4] was > 100 µM, the TGI [4] was > 100 µM and the GI50 [5] was > 100 µM. For the same compound, the TGI [5] was > 100 µM, the GI50 [6] was > 100 µM and the TGI [6] was > 100 µM. The GI50 [10] was > 100 µM, the TGI [10] was > 100 µM and the GI50 [7] was > 100 µM. The TGI [7] was > 100 µM, the GI50 [8] was > 100 µM and the TGI [8] was > 100 µM.

`O=C(O)Cc1cc(=O)[nH]c2c1C(=O)CCC2` was tested, and the TGI [2] was > 100 µM, the TGI [4] was > 100 µM and the TGI [5] was > 100 µM. For the same compound, the TGI [6] was > 100 µM and the TGI [8] was > 100 µM.

`COC(=O)C1=C(c2cc(OC)c(OC)c(OC)c2)O[C@H](c2ccc3c(c2)OCO3)[C@H]1COC(C)=O` was tested, and the TGI [2] was 26.3 µM, the TGI [3] was > 100 µM and the TGI [4] was 57.1 µM. The TGI [6] was > 100 µM and the TGI [8] was 63.5 µM.

`CCCCCCCCCCCCCCC(O)C1CCC(C(O)CCC(O)CCCCCC(O)CC2=CC(C)OC2=O)O1` (stereo not drawn) showed a TGI [1] of 13.3 µM, a TGI [2] of 8.41 µM and a TGI [3] of 4.59 µM. It also gave a TGI [4] of 12.1 µM, a TGI [5] of 12.2 µM and a TGI [6] of 13.6 µM. It also gave a TGI [7] of 13.2 µM and a TGI [8] of 20.9 µM.

For `COc1ccc(N2C(=O)C(N3C(=O)C=CC3=O)C2C=O)cc1` (stereo not drawn), the TGI [1] was > 100 µM, the TGI [2] was > 100 µM and the TGI [3] was > 100 µM. For the same compound, the TGI [4] was > 100 µM, the TGI [5] was > 100 µM and the TGI [6] was > 100 µM. The TGI [7] was > 100 µM and the TGI [8] was > 100 µM.

`O=C1C2=C(c3ccccc31)C(c1ccc(Cl)cc1)NC(=S)N2` (stereo not drawn) was tested, and the TGI [1] was 70.9 µM, the TGI [2] was 64.9 µM and the TGI [4] was 40.5 µM. It also gave a TGI [5] of 40.1 µM, a TGI [6] of 79.4 µM and a TGI [7] of 39 µM. It also gave a TGI [8] of 33.6 µM.

In the case of `CCCCN(CCCC)C(=O)C(=O)CC(=O)/C=C/c1ccccc1`, the TGI [1] is reported as > 100 µM, the TGI [2] is reported as > 100 µM and the TGI [3] is reported as > 100 µM. The TGI [4] was > 100 µM, the TGI [5] was > 100 µM and the TGI [6] was > 100 µM. For the same compound, the TGI [7] was > 100 µM and the TGI [8] was > 100 µM.

`O=C1C2=C(c3ccccc31)C(c1ccc(F)cc1)N1C(=O)CCSC1=N2` (stereo not drawn) was tested, and the TGI [1] was > 100 µM, the TGI [2] was > 100 µM and the TGI [4] was > 100 µM. The TGI [5] was > 100 µM, the TGI [6] was > 100 µM and the TGI [7] was > 100 µM. The TGI [8] was > 100 µM.

With `COC(=O)C12C3C4C1C1C2C3C41C(=O)N(C(C)C)C(C)C` (stereo not drawn) the TGI [1] was > 100 µM, the TGI [2] was > 100 µM and the TGI [4] was > 100 µM. For the same compound, the TGI [5] was > 100 µM, the TGI [6] was > 100 µM and the TGI [7] was > 100 µM. For the same compound, the TGI [8] was > 100 µM.

In the case of `Cc1ccc([N+](=O)[O-])cc1NC(=O)C(=O)C1CCC2=C(Sc3ccccc3N2)C1=O` (stereo not drawn), the TGI [1] is reported as > 100 µM, the TGI [2] is reported as > 100 µM and the TGI [9] is reported as > 100 µM. The TGI [3] was > 100 µM, the TGI [4] was > 100 µM and the TGI [5] was > 100 µM. The TGI [10] was > 100 µM, the TGI [7] was > 100 µM and the TGI [8] was > 100 µM.

With `COc1cc(CNC(=O)CCSc2nc3ccccc3c(=O)n2Cc2cc(OC)c(OC)c(OC)c2)cc(OC)c1OC` the GI50 [1] was 2.92 µM, the TGI [1] was 20.6 µM and the GI50 [2] was 5.32 µM. The TGI [2] was 23.2 µM, the GI50 [9] was 3.59 µM and the TGI [9] was 30.9 µM. The GI50 [3] was 7.05 µM, the TGI [3] was > 100 µM and the GI50 [4] was 6.87 µM. For the same compound, the TGI [4] was > 100 µM, the GI50 [5] was 7.13 µM and the TGI [5] was > 100 µM. For the same compound, the GI50 [7] was 6.33 µM, the TGI [7] was > 100 µM and the GI50 [8] was 5.34 µM. For the same compound, the TGI [8] was 59.5 µM.
